Patent US11833146B2, “Dementia therapeutic agent combining pyrazoloquinoline derivative and donepezil” (Eisai R&D Management Co., Ltd., priority 2017, dated 2023)

System: rats with scopolamine-induced cognitive impairment
Assay: Novel object recognition test using rats with scopolamine-induced cognitive impairment
Format: in vivo, rat (male Long Evans)
Settings: for effect on the percentage of exploration of the novel object (in words): vs disease control group, p<0.05; for percentage of exploration of the novel object in T2: scopolamine 0.7 mg/kg s.c., mean±standard error
Excerpt: [Test Example 1] Novel Object Recognition Test Using Rats with Scopolamine-Induced Cognitive Impairment
Acetylcholine nervous system disorder has been reported in Alzheimer's disease and Lewy body dementia (Whitehouse et al., Science, 1982, vol. 215, p. 1237, Shimada et al., Neurology, vol. 73, p. 273, 2009, Tiraboschi et al., Neurology 54 (2000) 407-411, Peny et. al., NeuroReport, vol. 5, pp. 747-749 (1994)), and scopolamine-administered animals are utilizable as an animal model for Alzheimer's disease and Lewy body dementia.
Scopolamine is a muscarine receptor inhibitor which blocks acetylcholine nervous system transmission.
6-week-old male Long Evans rats (Institute for Animal Reproduction) were subjected to the test. A habituation process to the experimental procedure was carried out once per day for 2 days prior to the test. In the habituation process, a vehicle was administered to the rats, and then the rats were placed in an empty test apparatus (40 cm×30 cm×45 cm height) and allowed to explore for 3 minutes, and after then placed in a waiting chamber (13 cm×30 cm×45 cm height) for about 1 minute, they were returned to the empty test apparatus again and left for 5 minutes.
An acquisition trial (T1) was carried out on the day of the test. Compound (I) was orally administered 2 hours before T1. Donepezil hydrochloride was orally administered 1 hour before T1. Scopolamine (Wako Pure Chemical Industries, Ltd.) was subcutaneously administered 30 minutes before T1 at a dose of 0.7 mg/kg. In T1, the rats were habituated to the empty test apparatus for 3 minutes and then placed in the waiting chamber. After setting two identical objects in the test apparatus, the rats were returned into the test apparatus again and allowed to freely explore the two identical objects for 5 minutes. The rats were then returned into their rearing cages. After 2 hours, a retention trial (T2) was carried out. The rats were placed in the empty test apparatus for 3 minutes for habituation, and were then transferred into the waiting chamber. After setting an object used in T1 (“familiar” object) and an object not used in T1 (“novel” object) in the test apparatus, the rats were again returned into the test apparatus and allowed to freely explore these objects for 3 minutes. The objects were wiped with a wet wipe impregnated with ethanol after each experiment so as to leave no trace of odor. The behaviors of the rats during T1 and T2 were recorded by a digital video camera, and the total exploration time for each object was manually measured using a stopwatch. Exploratory behavior was defined as the behavior in which the rat brings its nose within 2 cm of the object and directs its nose toward the object.
In the novel object recognition test, the percentage of exploration of the novel object in T2 is considered to be an index for amnesia, reflecting discrimination between the familiar object and the novel object. The percentage of exploration of the novel object was calculated by the following formula. The percentage of exploration of the novel object (%)=N/(N+F)×100 F: time spent in exploring the familiar object N: time spent in exploring the novel object
Rats whose total time spent in exploring the objects during T1 or T2 was 10 seconds or less or rats whose percentage of the time spent in exploring either of the objects during T1 was not less than 70% or not more than 30% of the total exploration time were excluded from the data analysis.
The results were expressed as mean±standard error. The difference between the normal control group untreated with scopolamine and the disease control group treated with scopolamine was analyzed by an unpaired t-test (significant difference: *). The difference between the disease control group and the single drug-treated group was analyzed by Dunnett-type multiple comparison test (significant difference: #).

Compound | effect on the percentage of exploration of the novel object (in words) (1 mg/kg) | effect on the percentage of exploration of the novel object (in words) (3.3 mg/kg) | percentage of exploration of the novel object in T2 (Table 5, Compound (I) 1 mg/kg alone, oral) [%] | effect on the percentage of exploration of the novel object (in words) (0.03 mg/kg) | effect on the percentage of exploration of the novel object (in words) (0.3 mg/kg) | percentage of exploration of the novel object in T2 (Table 3, Donepezil 0.03 mg/kg oral 1 h before T1) [%] | percentage of exploration of the novel object in T2 (Table 4, Donepezil 0.1 mg/kg oral 1 h before T1) [%] | percentage of exploration of the novel object in T2 (Table 4, Donepezil 0.3 mg/kg oral 1 h before T1, # significant vs disease control) | percentage of exploration of the novel object in T2 (Table 5, Donepezil 0.03 mg/kg alone, oral) [%]
COc1ncc(C)c(-c2ccc3c(c2)[nH]c(=O)c2cnn([C@H]4CCOC4)c23)c1C [Compound (I), (S)-7-(2-methoxy-3,5-dimethylpyridin-4-yl)-1-(tetrahydrofuran-3-yl)-1H-pyrazolo[4,3-c]quinoline-4(5H)-one] | did not exhibit a significant effect | significant ameliorative effect | 64.9 ± 2.2 | – | – | – | – | – | –
COc1cc2c(cc1OC)C(=O)C(CC1CCN(Cc3ccccc3)CC1)C2 (stereo not drawn) [Donepezil, donepezil] | – | – | – | did not exhibit a significant effect | significant ameliorative effect | 62.7 ± 3.6 | 66.2 ± 4.0 | 70.4 ± 4.8# % | 57.8 ± 4.0
